# According to PMC9935382, “Sorting nexin-dependent therapeutic targeting of oncogenic epidermal growth factor receptor” (Cancer Gene Therapy, 2022):
# System: BT20 cells
# Assay: BT20 mammosphere formation
# Assay type: cell-based
# Procedure: 20,000 BT20 cells were suspended in mammosphere media (15 mL Mammocult media supplemented with 1.7 mL Proliferation supplement, 1.5 μL hydrocortisone, 30 μL heparin, and 150μL penicillin/streptomycin) and plated onto a low adhesion 6-well plate. After one week the number of spheres per well were counted. Cells from selected wells were then dissociated in trypsin EDTA and plated with fresh mammosphere media to develop secondary mammospheres.
# Cells were then fractionated and verified by HSP90 cytosolic protein, Bap31 membrane protein, or HDAC nuclear protein. […] After the second week, the number of secondary mammospheres were counted.
# These spheres were then disassociated and re-plated to form secondary mammospheres.
smiles,measurement,setting,value
CC[C@H](C)[C@H](NC(=O)[C@@H](NC(=O)[C@H](Cc1c[nH]cn1)NC(=O)[C@H](CC(N)=O)NC(=O)[C@H](CCCCN)NC(=O)[C@H](C)NC(=O)[C@H](CCCNC(=N)N)NC(=O)[C@H](C)NC(=O)[C@H](CCC(N)=O)NC(=O)[C@H](CCCNC(=N)N)NC(=O)[C@H](C)NC(=O)[C@H](C)NC(=O)[C@H](C)NC(=O)[C@H](CCCNC(=N)N)NC(=O)[C@H](C)NC(=O)[C@H](Cc1ccc(O)cc1)NC(C)=O)C(C)C)C(=O)N[C@@H](CCCCN)C(=O)N[C@@H](Cc1ccc(O)cc1)C(=O)N[C@@H](CC(C)C)C(=O)N[C@@H](CCC(=O)O)C(=O)N[C@H](C(=O)N[C@@H](CC(C)C)C(=O)N[C@@H](CC(C)C)C(=O)N[C@@H](Cc1ccc(O)cc1)C(=O)N[C@@H](CO)C(=O)N[C@@H](CCC(N)=O)C(=O)N[C@@H](CCC(N)=O)C(=O)N[C@@H](CCC(N)=O)C(=O)N[C@@H](CC(C)C)C(=O)N[C@@H](C)C(=O)N[C@@H](CCCCN)C(=O)N[C@@H](Cc1ccc(O)cc1)C(=O)N[C@@H](Cc1c[nH]c2ccccc12)C(=O)N[C@@H](CCC(=O)O)C(=O)N[C@@H](C)C(=O)N[C@@H](Cc1ccccc1)C(=O)N[C@@H](CC(C)C)C(N)=O)[C@@H](C)O [cSNX1.3],primary mammosphere formation,"1 week treatment, low adhesion plate",no mammospheres were formed
same,"secondary mammosphere formation, treated in the first week","cSNX1.3 in first week, then cPTD4 or vehicle in second week",reduction in sphere formation
same,"secondary mammosphere formation, treated in the second week",treated during second week,no mammosphere formation
